The text below walks through data of US8158628B2, “Sulfonylated 1,2,3,4-tetrahydropyrrolo[1,2-a]pyrazine compounds and their use as pharmaceuticals” (Gruenenthal GmbH, priority 2009, dated 2012).

This assay has as its target T1, B1R of the rat (Rattus norvegicus, UniProt P97583).
T1 construct: expressed in transfected cells; host or cells: CHO K1 cells (Chinese hamster ovary), stably transfected
T1 sequence (P97583 1-337): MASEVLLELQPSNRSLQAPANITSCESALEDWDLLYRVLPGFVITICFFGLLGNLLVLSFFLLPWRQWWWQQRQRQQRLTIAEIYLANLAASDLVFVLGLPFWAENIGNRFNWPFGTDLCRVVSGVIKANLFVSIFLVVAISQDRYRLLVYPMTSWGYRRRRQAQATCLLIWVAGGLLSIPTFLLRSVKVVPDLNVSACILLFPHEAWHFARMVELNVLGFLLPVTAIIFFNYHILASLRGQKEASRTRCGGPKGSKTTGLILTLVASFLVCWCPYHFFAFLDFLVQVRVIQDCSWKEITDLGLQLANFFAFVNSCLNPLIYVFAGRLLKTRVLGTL
Kind of assay: FLIPR Ca2+ functional assay, B1R antagonism, rat B1R in CHO K1 cells. Format: cell-based. To be noted: test substance 10 μM; rB1R CHO K1 cells; agonist Des-Arg9 bradykinin at EC80; % of maximum achievable inhibition. Here is the method: The agonistic or antagonistic action of substances on the bradykinin 1 receptor (B1R) of the human and rat species can be quantified with ectopically expressing cell lines (CHO K1 cells) and with the aid of a Ca^2+-sensitive dye (Fluo-4) using a fluorescent imaging plate reader (FLIPR). The value in % activation is based on the Ca^2+ signal after addition of Lys-Des-Arg^9 bradykinin (0.5 nM) or Des-Arg^9 bradykinin (100 nM). Antagonists lead to a suppression of the Ca^2+ influx following administration of the agonist. The % inhibition in comparison with the maximum achievable inhibition is indicated.
1. Functional Investigation on the Bradykinin 1 Receptor (B1R) The agonistic or antagonistic action of substances can be determined on the bradykinin 1 receptor (B1R) of the human and rat species with the following assay. According to this assay, the Ca^2+ inflow through the channel is quantified with the aid of a Ca^2+-sensitive dye (Fluo-4 type, Molecular Probes Europe BV, Leiden, Netherlands) in a fluorescent imaging plate reader (FLIPR, Molecular Devices, Sunnyvale, USA). 2. Method: Chinese hamster ovary cells (CHO K1 cells) which are stably transfected with the human B1R gene (hB1R cells) or the B1R gene of the rat (rB1R cells) are used. For functional investigations these cells are plated-out onto black 96-well plates with a clear base (BD Biosciences, Heidelberg, Germany or Greiner, Frickenhausen, Germany) in a density of 20,000-35,000 cells/well. Overnight the cells are incubated at 37° C. and 5% CO2 in culture medium (hB1R cells: Ham's Nutrient Mixture F12, Gibco Invitrogen GmbH, Karlsruhe, Germany or DMEM, Sigma-Aldrich, Taufkirchen, Germany; rB1R cells: D-MEM/F12, Gibco Invitrogen, Karlsruhe, Germany) with 10 vol. % FBS (foetal bovine serum, Gibco Invitrogen GmbH, Karlsruhe, Germany or PAN Biotech GmbH, Aidenbach, Germany).
On the following day the cells are loaded with 2.13 μM Fluo-4 (Molecular Probes Europe BV, Leiden, Netherlands) in HBSS buffer (Hank's buffered saline solution, Gibco Invitrogen GmbH, Karlsruhe, Germany) with 2.5 mM probenecid (Sigma-Aldrich, Taufkirchen, Germany) and 10 mM HEPES (Sigma-Aldrich, Taufkirchen, Germany) for 60 min at 37° C. The plates are subsequently washed twice with HBSS buffer, and HBSS buffer which additionally contains 0.1% BSA (bovine serum albumin; Sigma-Aldrich, Taufkirchen, Germany), 5.6 mM glucose and 0.05% gelatine (Merck KGaA, Darmstadt, Germany) is added. After a further incubation of 20 minutes at RT, the plates are inserted into the FLIPR for Ca^2+ measurement. Alternatively they are washed with buffer A (15 mM HEPES, 80 mM NaCl, 5 mM KCl, 1.2 mM CaCl2, 0.7 mM MgSO4, 2 g/l glucose, 2.5 mM probenecid) and loaded with buffer A with added 2.5 μM Fluo-4 and 0.025% Pluronic F127 (Sigma-Aldrich, Taufkirchen, Germany). The cells are then washed twice with buffer A and incubated for 30 minutes with buffer A, which additionally contains 0.05% BSA and 0.05% gelatine, at RT and then used for Ca^2+ measurement in the FLIPR. The Ca^2+-dependent fluorescence is measured here before and after addition of substances (λex=488 nm, λem=540 nm). The quantification is performed by measuring the highest fluorescence intensity (FC, fluorescence counts) over time.
The FLIPR protocol comprises two additions of substance. Test substances (10 μM) are first pipetted onto the cells and the Ca^2+ inflow is compared with the control (hB1R: Lys-Des-Arg^9 bradykinin >=50 nM; rB1R: Des-Arg^9 bradykinin 10 μM). The value in % activation based on the Ca^2+ signal after addition of Lys-Des-Arg^9 bradykinin (>=50 nM) or Des-Arg^9 bradykinin (10 μM) is obtained therefrom. After incubation for 10-20 minutes, Lys-Des-Arg^9 bradykinin (hB1R) or Des-Arg^9 bradykinin (rB1R) is applied in the EC80 concentration and the inflow of Ca^2+ is likewise determined.
Antagonists lead to a suppression of the Ca^2+ inflow. The % inhibition in comparison with the maximum achievable inhibition is calculated. […]
For `O=C(CC1c2cccn2CCN1S(=O)(=O)c1ccccc1)N1CCC(N2CCCC2)CC1` (stereo not shown) [Example 175, 2-[2-(Benzenesulfonyl)-1,2,3,4-tetrahydro-pyrrolo[1,2-a]pyrazin-1-yl]-1-(4-pyrrolidin-1-yl-piperidin-1-yl)-ethanone], the inhibition at 10 µM amounted to 9.54%.
To `O=C(CC1c2cccn2CCN1S(=O)(=O)c1ccccc1)N1CCC(N2CCOCC2)CC1` (stereo not shown) [Example 176, 2-[2-(Benzenesulfonyl)-1,2,3,4-tetrahydro-pyrrolo[1,2-a]pyrazin-1-yl]-1-(4-morpholin-4-yl-piperidin-1-yl)-ethanone] belongs 26.7%.
With `CN1CCN(C2CCN(C(=O)CC3c4cccn4CCN3S(=O)(=O)c3ccccc3)CC2)CC1` (stereo not shown) [Example 177, 2-[2-(Benzenesulfonyl)-1,2,3,4-tetrahydro-pyrrolo[1,2-a]pyrazin-1-yl]-1-[4-(4-methyl-piperazin-1-yl)-piperidin-1-yl]-ethanone] the figure was -1.9%; with `Cc1ccc(C)n1CCN1CCN(C(=O)CC2c3cccn3CCN2S(=O)(=O)c2ccccc2)CC1` (stereo not shown) [Example 178, 2-[2-(Benzenesulfonyl)-1,2,3,4-tetrahydro-pyrrolo[1,2-a]pyrazin-1-yl]-1-[4-[2-(2,5-dimethyl-1H-pyrrol-1-yl)-ethyl]-piperazin-1-yl]-ethanone], 17.2%; with `O=C(CC1c2cccn2CCN1S(=O)(=O)c1ccccc1)N1CCN(c2ncccn2)CC1` (stereo not shown) [Example 179, 2-[2-(Benzenesulfonyl)-1,2,3,4-tetrahydro-pyrrolo[1,2-a]pyrazin-1-yl]-1-(4-pyrimidin-2-yl-piperazin-1-yl)-ethanone], 20.8%.
To `Cc1ccc2[nH]c(C3CCN(C(=O)CC4c5cccn5CCN4S(=O)(=O)c4ccccc4)CC3)nc2c1` (stereo not shown) [Example 180, 2-[2-(Benzenesulfonyl)-1,2,3,4-tetrahydro-pyrrolo[1,2-a]pyrazin-1-yl]-1-[4-(5-methyl-1H-benzoimidazol-2-yl)-piperidin-1-yl]-ethanone] belongs 32.9%; to `N#Cc1cccnc1N1CCCN(C(=O)CC2c3cccn3CCN2S(=O)(=O)c2ccccc2)CC1` (stereo not shown) [Example 181, 2-[4-[2-[2-(Benzenesulfonyl)-1,2,3,4-tetrahydro-pyrrolo[1,2-a]pyrazin-1-yl]-acetyl]-[1,4]diazepan-1-yl]-pyridine-3-carbonitrile], 33.9%; to `O=C(CC1c2cccn2CCN1S(=O)(=O)c1ccccc1)NCC1CCN(Cc2ccccc2)C1` (stereo not shown) [Example 182, 2-[2-(Benzenesulfonyl)-1,2,3,4-tetrahydro-pyrrolo[1,2-a]pyrazin-1-yl]-N-[(1-benzyl-pyrrolidin-3-yl)-methyl]-acetamide], 37.5%.
For `O=C(CC1c2cccn2CCN1S(=O)(=O)c1ccccc1)N1CCN(c2ccc(C(F)(F)F)cn2)CC1` (stereo not shown) [Example 183, 2-[2-(Benzenesulfonyl)-1,2,3,4-tetrahydro-pyrrolo[1,2-a]pyrazin-1-yl]-1-[4-[5-(trifluoromethyl)-pyridin-2-yl]-piperazin-1-yl]-ethanone], the inhibition at 10 µM worked out at 56.1%.
Take `CC1CCCC(C)N1CCCNC(=O)CC1c2cccn2CCN1S(=O)(=O)c1cccc(C(F)(F)F)c1` (stereo not shown) [Example 184, N-[3-(2,6-Dimethyl-piperidin-1-yl)-propyl]-2-[2-[[3-(trifluoromethyl)phenyl]sulfonyl]-1,2,3,4-tetrahydro-pyrrolo[1,2-a]pyrazin-1-yl]-acetamide]: the inhibition at 10 µM is 19.4%.
To `CN1CCN(CC(NC(=O)CC2c3cccn3CCN2S(=O)(=O)c2cccc(C(F)(F)F)c2)c2ccccc2)CC1` (stereo not shown) [Example 185, N-[2-(4-Methyl-piperazin-1-yl)-1-phenyl-ethyl]-2-[2-[[3-(trifluoromethyl)phenyl]sulfonyl]-1,2,3,4-tetrahydro-pyrrolo[1,2-a]pyrazin-1-yl]-acetamide] belongs 76.4%; to `O=C(CC1c2cccn2CCN1S(=O)(=O)c1cccc(C(F)(F)F)c1)N1CCN(c2ccccc2F)CC1` (stereo not shown) [Example 186, 1-[4-(2-Fluorophenyl)-piperazin-1-yl]-2-[2-[[3-(trifluoromethyl)phenyl]sulfonyl]-1,2,3,4-tetrahydro-pyrrolo[1,2-a]pyrazin-1-yl]-ethanone], 24.4%.
With `CCN1CCN(C(=O)CC2c3cccn3CCN2S(=O)(=O)c2cccc(C(F)(F)F)c2)CC1` (stereo not shown) [Example 187, 1-(4-Ethyl-piperazin-1-yl)-2-[2-[[3-(trifluoromethyl)phenyl]sulfonyl]-1,2,3,4-tetrahydro-pyrrolo[1,2-a]pyrazin-1-yl]-ethanone] the figure was 18.3%.
To `O=C(CC1c2cccn2CCN1S(=O)(=O)c1cccc(C(F)(F)F)c1)N1CCC(N2CCCCC2)CC1` (stereo not shown) [Example 188, 1-(4-Piperidin-1-yl-piperidin-1-yl)-2-[2-[[3-(trifluoromethyl)phenyl]sulfonyl]-1,2,3,4-tetrahydro-pyrrolo[1,2-a]pyrazin-1-yl]-ethanone] belongs -2.25%; to `Cc1ccc2[nH]c(C3CCN(C(=O)CC4c5cccn5CCN4S(=O)(=O)c4cccc(C(F)(F)F)c4)CC3)nc2c1` (stereo not shown) [Example 189, 1-[4-(5-Methyl-1H-benzoimidazol-2-yl)-piperidin-1-yl]-2-[2-[[3-(trifluoromethyl)phenyl]sulfonyl]-1,2,3,4-tetrahydro-pyrrolo[1,2-a]pyrazin-1-yl]-ethanone], -1.61%; to `O=C(CC1c2cccn2CCN1S(=O)(=O)c1cccc(C(F)(F)F)c1)N1CCN(c2ccccn2)CC1` (stereo not shown) [Example 190, 1-(4-Pyridin-2-yl-piperazin-1-yl)-2-[2-[[3-(trifluoromethyl)phenyl]sulfonyl]-1,2,3,4-tetrahydro-pyrrolo[1,2-a]pyrazin-1-yl]-ethanone], 20.4%.
As to `Cc1cc(S(=O)(=O)N2CCn3cccc3C2CC(=O)N(C)C(CN2CCN(C)CC2)c2ccccc2)c(C)cc1Cl` (stereo not shown) [Example 230, 2-[2-[(4-Chloro-2,5-dimethyl-phenyl)sulfonyl]-1,2,3,4-tetrahydro-pyrrolo[1,2-a]pyrazin-1-yl]-N-methyl-N-[2-(4-methyl-piperazin-1-yl)-1-phenyl-ethyl]-acetamide], the inhibition at 10 µM worked out at 5.28%.
As to `O=C(CC1c2cccn2CCN1S(=O)(=O)c1ccccc1)N1CCN(c2ccc(Cl)c(Cl)c2)CC1` (stereo not shown) [Example 231, 2-[2-(Benzenesulfonyl)-1,2,3,4-tetrahydro-pyrrolo[1,2-a]pyrazin-1-yl]-1-[4-(3,4-dichlorophenyl)-piperazin-1-yl]-ethanone], the inhibition at 10 µM was -0.67%.
To `Cc1ccc(CN2CCN(C(=O)CC3c4cccn4CCN3S(=O)(=O)c3ccccc3)CC2)cc1` (stereo not shown) [Example 232, 2-[2-(Benzenesulfonyl)-1,2,3,4-tetrahydro-pyrrolo[1,2-a]pyrazin-1-yl]-1-[4-(p-tolyl-methyl)-piperazin-1-yl]-ethanone] belongs 2.94%.
